US6765010B2, “Compositions and methods for enhancing analgesic potency of tramadol and attenuating its adverse side effects” (Pain Therapeutics, Inc., priority 1999, dated 2004)
Where two headings read alike, the source gives them in different places.

Key:
[1] = system: human subjects/patients with pain following dental surgery; assay: Dental surgery pain study: adverse events
[2] = system: human subjects/patients with pain following dental surgery; type: in vivo
[3] = system: human subjects/patients with pain following dental surgery; assay: Dental surgery pain study: visual analog scale pain intensity difference (VAS-PID, VAS-SPID); type: in vivo; conditions: LOCF; for Hourly Visual Analog-PID (VAS-PID) score, Mean / Hourly Visual Analog-PID (VAS-PID) score, Median: ITT subjects
[4] = ITT, counted once per subject (Table 15)
[5] = Severity = Moderate, ITT subjects

In the case of `COc1cccc([C@@]2(O)CCCC[C@@H]2CN(C)C)c1.Cl` (racemic) [tramadol, (1RS,2RS)-2[(dimethylamino)-methyl]-1-(3-methoxyphenyl)-cyclohexanol HCL], the “Adverse events: Number (%) with Events” value ([1]; ITT, Severity = Severe) is reported as 3 (6.0%) n (%), the “Adverse events: Number of Events” value ([1]; ITT, Severity = Severe) is reported as 3 events and the “Gastrointestinal Disorders, frequency (percentage)” value ([1]; ITT, Severity = Severe) is reported as 2 (4.0%) n (%). The “Gastrointestinal Disorders, occurrence” value ([1]; ITT, Severity = Severe) was 2 events, the “Headache Nos, frequency (percentage)” value ([1]; ITT, Severity = Severe) was 1 (2.0%) n (%) and the “Headache Nos, occurrence” value ([1]; ITT, Severity = Severe) was 1 events. The “Nausea, frequency (percentage)” value ([1]; ITT, Severity = Severe) was 2 (4.0%) n (%), the “Nausea, occurrence” value ([1]; ITT, Severity = Severe) was 2 events and the “Nervous System Disorders, frequency (percentage)” value ([1]; ITT, Severity = Severe) was 1 (2.0%) n (%). The “Nervous System Disorders, occurrence” value ([1]; ITT, Severity = Severe) was 1 events, the “Vomiting Nos, frequency (percentage)” value ([1]; ITT, Severity = Severe) was 1 (2.0%) n (%) and the “Vomiting Nos, occurrence” value ([1]; ITT, Severity = Severe) was 1 events. The “Adverse events: Number (%) with Events” value ([1]; ITT, all severities) was 40 (80%) n (%), the “Adverse events: Number of Events” value ([1]; ITT, all severities) was 134 events and the “Dizziness (Exc Vertigo), frequency (percentage)” value ([1]; ITT, all severities) was 15 (30.0%) n (%). For the same compound, the “Dizziness (Exc Vertigo), occurrence” value ([1]; ITT, all severities) was 19 events, the “Gastrointestinal Disorders, frequency (percentage)” value ([1]; ITT, all severities) was 20 (40.0%) n (%) and the “Gastrointestinal Disorders, occurrence” value ([1]; ITT, all severities) was 40 events. For the same compound, the “Headache Nos, frequency (percentage)” value ([1]; ITT, all severities) was 28 (56.0%) n (%), the “Headache Nos, occurrence” value ([1]; ITT, all severities) was 38 events and the “Nausea, frequency (percentage)” value ([1]; ITT, all severities) was 20 (40.0%) n (%). The “Nausea, occurrence” value ([1]; ITT, all severities) was 28 events, the “Nervous System Disorders, frequency (percentage)” value ([1]; ITT, all severities) was 40 (80.0%) n (%) and the “Nervous System Disorders, occurrence” value ([1]; ITT, all severities) was 89 events. For the same compound, the “Pruritus Nos, frequency (percentage)” value ([1]; ITT, all severities) was 2(4.0%) n (%), the “Pruritus Nos, occurrence” value ([1]; ITT, all severities) was 2 events and the “Sedation, frequency (percentage)” value ([1]; ITT, all severities) was 28 (56.0%) n (%). The “Sedation, occurrence” value ([1]; ITT, all severities) was 32 events, the “Skin & Subcutaneous Tissue Disorders, frequency (percentage)” value ([1]; ITT, all severities) was 2 (4.0%) n (%) and the “Skin & Subcutaneous Tissue Disorders, occurrence” value ([1]; ITT, all severities) was 2 events. For the same compound, the “Vomiting Nos, frequency (percentage)” value ([1]; ITT, all severities) was 10 (20.0%) n (%), the “Vomiting Nos, occurrence” value ([1]; ITT, all severities) was 12 events and the “Incidence of Nausea, No” value [1, 4] was 30 (60.0%) n (%). For the same compound, the “Incidence of Nausea, Yes” value [1, 4] was 20 (40.0%) n (%), the “Incidence of Vomiting Nos, No” value [1, 4] was 40 (80.0%) n (%) and the “Incidence of Vomiting Nos, Yes” value [1, 4] was 10 (20.0%) n (%). For the same compound, the “Dizziness (Exc Vertigo), frequency (subjects)” value ([1]; Severity = Mild, ITT subjects) was 12, the “Dizziness (Exc Vertigo), occurrence (events)” value ([1]; Severity = Mild, ITT subjects) was 16 and the “Dizziness (Exc Vertigo), percentage of subjects” value ([1]; Severity = Mild, ITT subjects) was 24.0%. The “Gastrointestinal Disorders, frequency (subjects)” value ([1]; Severity = Mild, ITT subjects) was 6, the “Gastrointestinal Disorders, occurrence (events)” value ([1]; Severity = Mild, ITT subjects) was 15 and the “Gastrointestinal Disorders, percentage of subjects” value ([1]; Severity = Mild, ITT subjects) was 12.0%. The “Headache Nos, frequency (subjects)” value ([1]; Severity = Mild, ITT subjects) was 17, the “Headache Nos, occurrence (events)” value ([1]; Severity = Mild, ITT subjects) was 26 and the “Headache Nos, percentage of subjects” value ([1]; Severity = Mild, ITT subjects) was 34.0%. For the same compound, the “Nausea, frequency (subjects)” value ([1]; Severity = Mild, ITT subjects) was 9, the “Nausea, occurrence (events)” value ([1]; Severity = Mild, ITT subjects) was 14 and the “Nausea, percentage of subjects” value ([1]; Severity = Mild, ITT subjects) was 18.0%. The “Nervous System Disorders, frequency (subjects)” value ([1]; Severity = Mild, ITT subjects) was 23, the “Nervous System Disorders, occurrence (events)” value ([1]; Severity = Mild, ITT subjects) was 66 and the “Nervous System Disorders, percentage of subjects” value ([1]; Severity = Mild, ITT subjects) was 46.0%. The “Number of Events” value ([1]; Severity = Mild, ITT subjects) was 84, the “Number of subjects with adverse events” value ([1]; Severity = Mild, ITT subjects) was 15 and the “Percentage of subjects with adverse events” value ([1]; Severity = Mild, ITT subjects) was 30.0%. For the same compound, the “Pruritus Nos, frequency (subjects)” value ([1]; Severity = Mild, ITT subjects) was 2, the “Pruritus Nos, occurrence (events)” value ([1]; Severity = Mild, ITT subjects) was 2 and the “Pruritus Nos, percentage of subjects” value ([1]; Severity = Mild, ITT subjects) was 4.0%. The “Sedation, frequency (subjects)” value ([1]; Severity = Mild, ITT subjects) was 21, the “Sedation, occurrence (events)” value ([1]; Severity = Mild, ITT subjects) was 24 and the “Sedation, percentage of subjects” value ([1]; Severity = Mild, ITT subjects) was 42.0%. The “Skin & Subcutaneous Tissue Disorders, frequency (subjects)” value ([1]; Severity = Mild, ITT subjects) was 2, the “Skin & Subcutaneous Tissue Disorders, occurrence (events)” value ([1]; Severity = Mild, ITT subjects) was 2 and the “Skin & Subcutaneous Tissue Disorders, percentage of subjects” value ([1]; Severity = Mild, ITT subjects) was 4.0%. For the same compound, the “Vomiting Nos, frequency (subjects)” value ([1]; Severity = Mild, ITT subjects) was 3, the “Vomiting Nos, occurrence (events)” value ([1]; Severity = Mild, ITT subjects) was 4 and the “Vomiting Nos, percentage of subjects” value ([1]; Severity = Mild, ITT subjects) was 6.0%. The “Dizziness (Exc Vertigo), frequency (subjects)” value [1, 5] was 3, the “Dizziness (Exc Vertigo), occurrence (events)” value [1, 5] was 3 and the “Dizziness (Exc Vertigo), percentage of subjects” value [1, 5] was 6.0%. For the same compound, the “Gastrointestinal Disorders, frequency (subjects)” value [1, 5] was 12, the “Gastrointestinal Disorders, occurrence (events)” value [1, 5] was 23 and the “Gastrointestinal Disorders, percentage of subjects” value [1, 5] was 24.0%. For the same compound, the “Headache Nos, frequency (subjects)” value [1, 5] was 10, the “Headache Nos, occurrence (events)” value [1, 5] was 11 and the “Headache Nos, percentage of subjects” value [1, 5] was 20.0%. For the same compound, the “Nausea, frequency (subjects)” value [1, 5] was 10, the “Nausea, occurrence (events)” value [1, 5] was 13 and the “Nausea, percentage of subjects” value [1, 5] was 20.0%. For the same compound, the “Nervous System Disorders, frequency (subjects)” value [1, 5] was 16, the “Nervous System Disorders, occurrence (events)” value [1, 5] was 22 and the “Nervous System Disorders, percentage of subjects” value [1, 5] was 32.0%. For the same compound, the “Number of Events” value [1, 5] was 47, the “Number of subjects with adverse events” value [1, 5] was 22 and the “Percentage of subjects with adverse events” value [1, 5] was 44.0%. For the same compound, the “Sedation, frequency (subjects)” value [1, 5] was 7, the “Sedation, occurrence (events)” value [1, 5] was 8 and the “Sedation, percentage of subjects” value [1, 5] was 14.0%. The “Vomiting Nos, frequency (subjects)” value [1, 5] was 9, the “Vomiting Nos, occurrence (events)” value [1, 5] was 10 and the “Vomiting Nos, percentage of subjects” value [1, 5] was 18.0%. For the same compound, the “Hourly Pain Relief Score (PAR), Mean” value ([2]; Hour 0.5, ITT) was 0.28, the “Hourly Pain Relief Score (PAR), Median” value ([2]; Hour 0.5, ITT) was 0 and the “Hourly Pain Relief Score (PAR), Mean” value ([2]; Hour 1, ITT) was 0.40. The “Hourly Pain Relief Score (PAR), Median” value ([2]; Hour 1, ITT) was 0, the “Hourly Pain Relief Score (PAR), Mean” value ([2]; Hour 2, ITT) was 0.76 and the “Hourly Pain Relief Score (PAR), Median” value ([2]; Hour 2, ITT) was 0. For the same compound, the “Hourly Pain Relief Score (PAR), Mean” value ([2]; Hour 3, ITT) was 0.80, the “Hourly Pain Relief Score (PAR), Median” value ([2]; Hour 3, ITT) was 0 and the “Hourly Pain Relief Score (PAR), Mean” value ([2]; Hour 4, ITT) was 0.94. For the same compound, the “Hourly Pain Relief Score (PAR), Median” value ([2]; Hour 4, ITT) was 0, the “Hourly Pain Relief Score (PAR), Mean” value ([2]; Hour 5, ITT) was 0.84 and the “Hourly Pain Relief Score (PAR), Median” value ([2]; Hour 5, ITT) was 0. The “Hourly Pain Relief Score (PAR), Mean” value ([2]; Hour 6, ITT) was 0.86, the “Hourly Pain Relief Score (PAR), Median” value ([2]; Hour 6, ITT) was 0 and the “Hourly Pain Relief Score (PAR), Mean” value ([2]; Hour 7, ITT) was 0.82. For the same compound, the “Hourly Pain Relief Score (PAR), Median” value ([2]; Hour 7, ITT) was 0, the “Hourly Pain Relief Score (PAR), Mean” value ([2]; Hour 8, ITT) was 0.86 and the “Hourly Pain Relief Score (PAR), Median” value ([2]; Hour 8, ITT) was 0. For the same compound, the “TOTPAR up to 4 Hours, Mean” value ([2]; ITT, single oral dose, LOCF) was 3.18, the “TOTPAR up to 4 Hours, Median” value ([2]; ITT, single oral dose, LOCF) was 2 and the “TOTPAR up to 6 Hours, Mean” value ([2]; ITT, single oral dose, LOCF) was 4.88. The “TOTPAR up to 6 Hours, Median” value ([2]; ITT, single oral dose, LOCF) was 2, the “TOTPAR up to 8 Hours, Mean” value ([2]; ITT, single oral dose, LOCF) was 6.56 and the “TOTPAR up to 8 Hours, Median” value ([2]; ITT, single oral dose, LOCF) was 2. For the same compound, the “Hourly Visual Analog-PID (VAS-PID) score, Mean” value (“Hourly Visual Analog-PID … Mean” for short) ([3]; Hour 0.5) was −6.16, the “Hourly Visual Analog-PID (VAS-PID) score, Median” value (from here on “Hourly Visual Analog-PID … Median”) ([3]; Hour 0.5) was −4 and the “Hourly Visual Analog-PID … Mean” value ([3]; Hour 1) was −7.54. For the same compound, the “Hourly Visual Analog-PID … Median” value ([3]; Hour 1) was −7, the “Hourly Visual Analog-PID … Mean” value ([3]; Hour 2) was −2.58 and the “Hourly Visual Analog-PID … Median” value ([3]; Hour 2) was −4. For the same compound, the “Hourly Visual Analog-PID … Mean” value ([3]; Hour 3) was −1.76, the “Hourly Visual Analog-PID … Median” value ([3]; Hour 3) was −2 and the “Hourly Visual Analog-PID … Mean” value ([3]; Hour 4) was 1.50. The “Hourly Visual Analog-PID … Median” value ([3]; Hour 4) was −2, the “Hourly Visual Analog-PID … Mean” value ([3]; Hour 5) was 1.16 and the “Hourly Visual Analog-PID … Median” value ([3]; Hour 5) was −2. For the same compound, the “Hourly Visual Analog-PID … Mean” value ([3]; Hour 6) was 1.36, the “Hourly Visual Analog-PID … Median” value ([3]; Hour 6) was −2 and the “Hourly Visual Analog-PID … Mean” value ([3]; Hour 7) was −1.10. The “Hourly Visual Analog-PID … Median” value ([3]; Hour 7) was −2, the “Hourly Visual Analog-PID … Mean” value ([3]; Hour 8) was −0.02 and the “Hourly Visual Analog-PID … Median” value ([3]; Hour 8) was −2. The “VAS-SPID up to 4 Hours, Mean” value ([3]; ITT, single oral dose) was −16.54, the “VAS-SPID up to 4 Hours, Median” value ([3]; ITT, single oral dose) was −19 and the “VAS-SPID up to 6 Hours, Mean” value ([3]; ITT, single oral dose) was −14.02. The “VAS-SPID up to 6 Hours, Median” value ([3]; ITT, single oral dose) was −18, the “VAS-SPID up to 8 Hours, Mean” value ([3]; ITT, single oral dose) was −15.14 and the “VAS-SPID up to 8 Hours, Median” value ([3]; ITT, single oral dose) was −27.
